Source: paper PMC8205226, “HIV-1 Integrase Inhibitors with Modifications That Affect Their Potencies against Drug Resistant Integrase Mutants” (ACS Infectious Diseases, 2021)
Read-outs that look alike come from different tables or passages of the source.

Assays:
HIV-1 IN mutant Y143R [1] = experiment: single-round infectivity assay, Y143R IN mutant; format: cell-based; details: for FC Y143R: fold change in EC50, IN mutant versus WT HIV-1
Method: (§1) Figure 2 Antiviral activities of the new compounds against RAL-resistant mutants. The EC50 values were determined using a vector that carries WT HIV-1 IN and the RAL-resistant mutants in a single round infection assay. […] Error bars represent the standard deviations of independent experiments, n = 4, performed in triplicate. The graph has a maximum value of 550 nM.
(§2) WT and mutant HIV-1 viral vectors were used in single-round infectivity assays to determine the antiviral potencies (EC50 values) of the compounds and the effects of the mutants on the EC50 values as previously described.[30],[54] Single round infectivity measurements were determined as done previously.[38]
(§3) The vector pNLNgoMIVR-ΔENV.LUC has been described previously.[26] To produce the new IN mutants used in this study, the IN open reading frame was removed from pNLNgoMIVR-ΔENV.LUC by digestion with KpnI and SalI, and the resulting fragment was inserted between the KpnI and SalI sites of pBluescript KS+. Using that construct as the wild-type template, we prepared the following HIV-1 IN mutants using the QuikChange II XL site directed mutagenesis kit (Agilent Technologies, Santa Clara, CA) protocol: N117A, N117H, P142A, P142H, P142S, Y143C, Y143H, S230R, R231G, and R231K. The following sense oligonucleotides were used with matching cognate antisense oligonucleotides (not shown) (Integrated DNA Technologies, Coralville, IA) in the mutagenesis: N117A, 5′-[…]-3′; N117H, 5′-[…]-3′; P142A, 5′-[…]-3′; P142H, 5′-[…]-3′; P142S, 5′-[…]-3′; Y143C, 5′- […]-3′; Y143H, 5′-[…]-3′; S230R, 5′- […]-3′; R231G, 5′-[…]-3′; R231K, 5′-[…]-3′.

HIV-1 IN mutant N117H = experiment: single-round infectivity assay, N117H IN mutant; format: cell-based; details: for EC50: Human immunodeficiency virus 1, read-out: EC50 values N117H; for FC N117H: fold change in EC50, IN mutant versus WT HIV-1
Method: (§4) The EC50 values were determined using a vector that carries the IN mutant in a single round infection assay. […] Error bars represent the standard deviations of independent experiments, n = 4, performed in triplicate.
as §2, §3

HIV-1 IN mutant P142H = experiment: single-round infectivity assay, P142H IN mutant; format: cell-based; details: for EC50: Human immunodeficiency virus 1, read-out: EC50 values P142H
Method: as §4
Single round infectivity measurements were determined as done previously.[38]
as §3

HIV-1 IN mutant P142S = experiment: single-round infectivity assay, P142S IN mutant; format: cell-based; details: for EC50: Human immunodeficiency virus 1, read-out: EC50 values P142S; for FC P142S: fold change in EC50, IN mutant versus WT HIV-1
Method: as §4, with “Figure 4 Mutations in the β5-α3 loop affect the antiviral potencies of the new compounds. The” for “The”
as §2, §3

HIV-1 IN mutant Y143H = experiment: single-round infectivity assay, Y143H IN mutant; format: cell-based; details: for FC Y143H: fold change in EC50, IN mutant versus WT HIV-1
Method: as §4, with “Figure 4 Mutations in the β5-α3 loop affect the antiviral potencies of the new compounds. The” for “The”
as §2, §3

HIV-1 IN mutant G118R [2] = details: single round infection; previously shown; cited from earlier work
HIV-1 IN mutant N155H [3] = experiment: single-round infectivity assay, N155H IN mutant; format: cell-based; details: for FC N155H: fold change in EC50, IN mutant versus WT HIV-1
Method: as §1, §2, §3

HIV-1 IN mutant R231K = experiment: single-round infectivity assay, R231K IN mutant; format: cell-based
Method: as §4, with “Figure 5 Antiviral potencies of the new compounds against IN with mutations in the […]. The” for “The”
as §2, §3

HIV-1 IN mutant Y143R [4] = details: single round infection; previously reported; cited from earlier work
WT HIV-1 = details: vector carrying WT HIV-1 IN, single round infection; previously reported; cited from earlier work
[5] = tested on: HIV-1 IN double mutant G140S/Q148H; experiment: single-round infectivity assay, G140S/Q148H IN double mutant; format: cell-based; details: for FC G140S/Q148H: fold change in EC50, IN mutant versus WT HIV-1
Method: as §1, §2, §3

HIV-1 IN mutant S119R = experiment: single-round infectivity assay, S119R IN mutant; format: cell-based; details: for EC50: Human immunodeficiency virus 1, read-out: EC50 values S119R; for FC S119R: fold change in EC50, IN mutant versus WT HIV-1
Method: as §4, §2, §3

[6] = tested on: HIV-1 IN double mutant G140S/Q148H; details: single round infection; previously reported; cited from earlier work
HIV-1 IN mutant N117A = experiment: single-round infectivity assay, N117A IN mutant; format: cell-based; details: for EC50: Human immunodeficiency virus 1, read-out: EC50 values N117A; for FC N117A: fold change in EC50, IN mutant versus WT HIV-1
Method: as §4, §2, §3

HIV-1 IN mutant P142A = experiment: single-round infectivity assay, P142A IN mutant; format: cell-based; details: for EC50: Human immunodeficiency virus 1, read-out: EC50 values P142A; for FC P142A: fold change in EC50, IN mutant versus WT HIV-1
Method: as §4, with “Figure 4 Mutations in the β5-α3 loop affect the antiviral potencies of the new compounds. The” for “The”
as §2, §3

HIV-1 IN mutant Y143C = experiment: single-round infectivity assay, Y143C IN mutant; format: cell-based; details: for FC Y143C: fold change in EC50, IN mutant versus WT HIV-1
Method: as §4, with “Figure 4 Mutations in the β5-α3 loop affect the antiviral potencies of the new compounds. The” for “The”
as §2, §3

HIV-1 IN mutant R231G = experiment: single-round infectivity assay, R231G IN mutant; format: cell-based; details: for EC50: Human immunodeficiency virus 1, read-out: EC50 values R231G; for FC R231G: fold change in EC50, IN mutant versus WT HIV-1
Method: as §4, with “Figure 5 Antiviral potencies of the new compounds against IN with mutations in the […]. The” for “The”
as §2, §3

HIV-1 IN mutant N155H [7] = details: single round infection; previously reported; cited from earlier work
HIV-1 IN mutant S230R = experiment: single-round infectivity assay, S230R IN mutant; format: cell-based; details: for EC50: Human immunodeficiency virus 1, read-out: EC50 values S230R; for FC S230R: fold change in EC50, IN mutant versus WT HIV-1
Method: as §4, with “Figure 5 Antiviral potencies of the new compounds against IN with mutations in the […]. The” for “The”
as §2, §3

HIV-1 IN mutant G118R [8] = experiment: single-round infectivity assay, G118R IN mutant; format: cell-based
Method: as §4, §2, §3

[9] = Human immunodeficiency virus 1, read-out: EC50 values Y143H, single round infection, n = 4
[10] = read-out: EC50 values Y143H, single round infection, n = 4
[11] = fold change in EC50, IN mutant versus WT HIV-1

SMILES: C[C@@H]1CCO[C@H]2Cn3cc(C(=O)NCc4ccc(F)cc4F)c(=O)c(O)c3C(=O)N12 [DTG, dolutegravir, reference compound]
- FC Y143R (HIV-1 IN mutant Y143R [1]): 2.7
- EC50 (HIV-1 IN mutant N117H): 2.4 nM
- FC N117H (HIV-1 IN mutant N117H): 1.5
- EC50 (HIV-1 IN mutant P142H): 2.8 ± 0.7 nM
- EC50 (HIV-1 IN mutant P142S): 2.2 ± 0.1 nM
- FC P142S (HIV-1 IN mutant P142S): 1.4
- EC50 (HIV-1 IN mutant Y143H; [9]): 2.2 ± 0.2 nM
- FC Y143H (HIV-1 IN mutant Y143H): 1.4
- EC50 (HIV-1 IN mutant Y143H; [10]): < 3 nM
- EC50 (HIV-1 IN mutant G118R [2]): 13 ± 5 nM
- FC N155H (HIV-1 IN mutant N155H [3]): 2.3
- EC50 (HIV-1 IN mutant R231K; Human immunodeficiency virus 1, read-out: EC50 values R231K, single round infection, n = 4): 4.2 ± 0.2 nM
- EC50 (HIV-1 IN mutant R231K; read-out: EC50 values R231K, single round infection, n = 4): < 5 nM
- EC50 (HIV-1 IN mutant Y143R [4]): 4.3 ± 1.2 nM
- EC50 (WT HIV-1): 1.6 ± 0.9 nM
- FC G140S/Q148H [5]: 3.6
- EC50 (HIV-1 IN mutant S119R): 2.3 ± 0.6 nM
- FC S119R (HIV-1 IN mutant S119R): 1.4
- EC50 [6]: 5.8 ± 0.5 nM
- EC50 (HIV-1 IN mutant N117A): 0.5 nM
- FC N117A (HIV-1 IN mutant N117A): 0.3
- EC50 (HIV-1 IN mutant P142A): 2.5 ± 0.5 nM
- FC P142A (HIV-1 IN mutant P142A): 1.6
- FC Y143C (HIV-1 IN mutant Y143C): 0.9
- EC50 (HIV-1 IN mutant R231G): 1.4 ± 0.2 nM
- FC R231G (HIV-1 IN mutant R231G): 0.9
- EC50 (HIV-1 IN mutant N155H [7]): 3.6 ± 1.3 nM
- EC50 (HIV-1 IN mutant S230R): 4.6 ± 0.7 nM
- FC S230R (HIV-1 IN mutant S230R): 2.9

SMILES: Nc1c(C(=O)NCc2ccc(F)cc2F)c(=O)n(O)c2ncc(CCCCCCO)cc12 [4d]
- ratio of the EC50s (our compound relative to DTG) against Y143R (HIV-1 IN mutant Y143R [1]; EC50 compound / EC50 DTG): 0.5
- FC Y143R (HIV-1 IN mutant Y143R [1]): 0.9
- ratio of the EC50s (our compound relative to DTG) against N117H (HIV-1 IN mutant N117H; EC50 compound / EC50 DTG): 1.3
- EC50 (HIV-1 IN mutant N117H): 3 nM
- FC N117H (HIV-1 IN mutant N117H): 1.3
- ratio of the EC50s (our compound relative to DTG) against P142H (HIV-1 IN mutant P142H; EC50 compound / EC50 DTG): 0.5
- EC50 (HIV-1 IN mutant P142H): 1.5 ± 0.1 nM
- FC P142H (HIV-1 IN mutant P142H; [11]): 0.7
- ratio of the EC50s (our compound relative to DTG) against G118R (HIV-1 IN mutant G118R [8]; EC50 compound / EC50 DTG): 0.5
- FC G118R (HIV-1 IN mutant G118R [8]; [11]): 2.8
- ratio of the EC50s (our compound relative to DTG) against P142S (HIV-1 IN mutant P142S; EC50 compound / EC50 DTG): 0.5
- EC50 (HIV-1 IN mutant P142S): 1.2 ± 0.2 nM
- FC P142S (HIV-1 IN mutant P142S): 0.5
- ratio of the EC50s (our compound relative to DTG) against Y143H (HIV-1 IN mutant Y143H; EC50 compound / EC50 DTG): 0.8
- EC50 (HIV-1 IN mutant Y143H; [9]): 1.5 ± 0.1 nM
- FC Y143H (HIV-1 IN mutant Y143H): 0.7
- EC50 (HIV-1 IN mutant Y143H; [10]): < 3 nM
- EC50 (HIV-1 IN mutant G118R [2]): 6.4 ± 2.5 nM
- ratio of the EC50s (our compound relative to DTG) against N155H (HIV-1 IN mutant N155H [3]; EC50 compound / EC50 DTG): 0.8
- FC N155H (HIV-1 IN mutant N155H [3]): 1.2
- ratio of the EC50s (our compound relative to DTG) against R231K (HIV-1 IN mutant R231K; EC50 compound / EC50 DTG): 0.6
- EC50 (HIV-1 IN mutant Y143R [4]): 2.1 ± 1.4 nM
- EC50 (WT HIV-1): 2.3 ± 0.6 nM
- ratio of the EC50s (our compound relative to DTG) against G140S/Q148H ([5]; EC50 compound / EC50 DTG): 1.6
- FC G140S/Q148H [5]: 4.1
- ratio of the EC50s (our compound relative to DTG) against S119R (HIV-1 IN mutant S119R; EC50 compound / EC50 DTG): 0.9
- EC50 (HIV-1 IN mutant S119R): 2.1 ± 0.1 nM
- FC S119R (HIV-1 IN mutant S119R): 0.9
- EC50 [6]: 9.4 ± 3.6 nM
- ratio of the EC50s (our compound relative to DTG) against N117A (HIV-1 IN mutant N117A; EC50 compound / EC50 DTG): 1.2
- EC50 (HIV-1 IN mutant N117A): 0.6 nM
- FC N117A (HIV-1 IN mutant N117A): 0.3
- ratio of the EC50s (our compound relative to DTG) against P142A (HIV-1 IN mutant P142A; EC50 compound / EC50 DTG): 0.8
- EC50 (HIV-1 IN mutant P142A): 2.1 ± 0.3 nM
- FC P142A (HIV-1 IN mutant P142A): 0.9
- ratio of the EC50s (our compound relative to DTG) against Y143C (HIV-1 IN mutant Y143C; EC50 compound / EC50 DTG): 0.9
- FC Y143C (HIV-1 IN mutant Y143C): 0.5
- ratio of the EC50s (our compound relative to DTG) against R231G (HIV-1 IN mutant R231G; EC50 compound / EC50 DTG): 0.9
- EC50 (HIV-1 IN mutant R231G): 1.3 ± 0.2 nM
- FC R231G (HIV-1 IN mutant R231G): 0.6
- EC50 (HIV-1 IN mutant N155H [7]): 2.7 ± 1 nM
- ratio of the EC50s (our compound relative to DTG) against S230R (HIV-1 IN mutant S230R; EC50 compound / EC50 DTG): 0.8
- EC50 (HIV-1 IN mutant S230R): 3.8 ± 0.3 nM
- FC S230R (HIV-1 IN mutant S230R): 1.7
